According to ChEMBL document CHEMBL6153090:
pEC50, pKi: −log10 of the molar value. Active and inactive are the calls of the source. No cut-off for these calls is given here.

What was measured:
[1] = biological target: Sigma intracellular receptor 2 (Homo sapiens, UniProt Q5BJF2); assay: Displacement of [3H]-pentazocine from human Sigma 2 receptor at 10 uM by cell-based radioligand binding assay
Cannabinoid receptor 1 [2] = biological target: T1, Cannabinoid receptor 1 (Homo sapiens, UniProt P21554); assay: Agonist activity at CB1 receptor in human MDA-MB-231 cells by FLIPR assay; type: functional, cell-based
T1 sequence (P21554 whole entry): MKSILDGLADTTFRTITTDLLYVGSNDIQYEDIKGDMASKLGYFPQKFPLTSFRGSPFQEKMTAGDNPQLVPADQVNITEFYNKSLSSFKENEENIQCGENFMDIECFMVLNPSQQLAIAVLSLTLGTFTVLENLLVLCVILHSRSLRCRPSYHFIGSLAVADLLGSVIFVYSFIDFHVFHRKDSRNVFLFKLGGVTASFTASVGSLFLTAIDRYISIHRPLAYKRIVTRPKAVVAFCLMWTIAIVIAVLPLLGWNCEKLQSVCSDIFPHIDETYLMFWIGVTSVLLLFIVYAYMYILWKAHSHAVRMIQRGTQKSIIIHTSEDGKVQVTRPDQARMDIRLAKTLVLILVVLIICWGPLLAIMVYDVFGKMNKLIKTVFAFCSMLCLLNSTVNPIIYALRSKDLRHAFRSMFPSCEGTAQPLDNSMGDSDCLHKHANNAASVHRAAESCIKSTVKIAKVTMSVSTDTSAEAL

Translocator protein = Translocator protein (Homo sapiens, UniProt P30536); assay: Displacement of [3H]-PK11195 from human PBR receptor at 10 uM by cell-based radioligand binding assay
Translocator protein, sequence (P30536 whole entry): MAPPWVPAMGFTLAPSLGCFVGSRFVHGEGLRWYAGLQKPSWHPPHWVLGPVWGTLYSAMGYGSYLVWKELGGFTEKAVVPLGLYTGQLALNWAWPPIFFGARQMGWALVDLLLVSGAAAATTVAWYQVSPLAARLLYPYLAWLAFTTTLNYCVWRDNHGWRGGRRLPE

Cannabinoid receptor 1 [3] = biological target: T1, Cannabinoid receptor 1; assay: Agonist activity at CB1 receptor in MDA-MB-231 cells at 100 to 300 uM by FLIPR assay; type: functional, cell-based; details: filed as agonist, dose 100-300 µM
[4] = biological target: 5-hydroxytryptamine receptor 2B (Homo sapiens, UniProt P41595); assay: Displacement of [3H]-LSD from human 5-HT2B receptor at 10 uM by cell-based radioligand binding assay
5-hydroxytryptamine receptor 2B, sequence (P41595 whole entry): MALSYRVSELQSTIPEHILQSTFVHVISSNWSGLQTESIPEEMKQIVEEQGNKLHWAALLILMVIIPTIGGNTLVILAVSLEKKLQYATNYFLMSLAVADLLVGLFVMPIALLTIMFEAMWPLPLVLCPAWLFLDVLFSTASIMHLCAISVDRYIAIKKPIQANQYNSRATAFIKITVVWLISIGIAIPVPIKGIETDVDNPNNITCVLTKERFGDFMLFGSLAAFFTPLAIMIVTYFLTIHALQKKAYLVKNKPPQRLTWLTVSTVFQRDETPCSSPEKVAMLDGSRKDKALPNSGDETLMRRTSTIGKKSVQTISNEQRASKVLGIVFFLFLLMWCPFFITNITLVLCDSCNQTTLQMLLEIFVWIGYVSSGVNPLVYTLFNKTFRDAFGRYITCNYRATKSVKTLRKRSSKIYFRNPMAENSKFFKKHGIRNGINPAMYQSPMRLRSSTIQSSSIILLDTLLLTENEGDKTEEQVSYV

[5] = biological target: Sigma non-opioid intracellular receptor 1 (Homo sapiens, UniProt Q99720); assay: Displacement of [3H]-pentazocine from human Sigma 1 receptor at 10 uM by cell-based radioligand binding assay
Sigma non-opioid intracellular receptor 1, sequence (Q99720 whole entry): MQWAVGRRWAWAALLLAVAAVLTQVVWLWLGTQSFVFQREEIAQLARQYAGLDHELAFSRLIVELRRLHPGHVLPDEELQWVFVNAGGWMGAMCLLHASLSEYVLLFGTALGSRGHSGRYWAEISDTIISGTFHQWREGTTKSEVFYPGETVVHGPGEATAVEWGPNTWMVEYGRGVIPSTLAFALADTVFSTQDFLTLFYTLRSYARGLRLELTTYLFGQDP

Cannabinoid receptor 1 [6] = biological target: T1, Cannabinoid receptor 1; assay: Agonist activity at CB1 receptor in MDA-MB-231 cells at 300 uM by FLIPR assay; type: functional, cell-based
D(2) dopamine receptor = D(2) dopamine receptor (Homo sapiens, UniProt P14416); assay: Displacement of [3H]-N-Methylspiperone from human D2 receptor at 10 uM by cell-based radioligand binding assay
D(2) dopamine receptor, sequence (P14416 whole entry): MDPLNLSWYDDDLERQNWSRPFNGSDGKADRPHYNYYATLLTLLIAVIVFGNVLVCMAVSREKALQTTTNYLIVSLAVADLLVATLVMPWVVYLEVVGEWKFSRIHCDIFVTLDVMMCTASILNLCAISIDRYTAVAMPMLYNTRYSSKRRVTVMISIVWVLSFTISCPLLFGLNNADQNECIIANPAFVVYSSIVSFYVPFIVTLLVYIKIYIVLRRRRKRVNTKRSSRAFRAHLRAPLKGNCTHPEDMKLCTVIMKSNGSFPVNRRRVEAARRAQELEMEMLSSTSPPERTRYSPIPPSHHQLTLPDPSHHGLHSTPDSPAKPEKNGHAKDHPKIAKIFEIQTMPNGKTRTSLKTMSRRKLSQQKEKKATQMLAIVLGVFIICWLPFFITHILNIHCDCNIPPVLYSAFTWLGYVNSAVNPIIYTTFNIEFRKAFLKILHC

[7] = biological target: Kappa-type opioid receptor (Homo sapiens, UniProt P41145); assay: Displacement of [3H]-U69593 human KOR receptor at 10 uM by cell-based radioligand binding assay
Kappa-type opioid receptor, sequence (P41145 whole entry): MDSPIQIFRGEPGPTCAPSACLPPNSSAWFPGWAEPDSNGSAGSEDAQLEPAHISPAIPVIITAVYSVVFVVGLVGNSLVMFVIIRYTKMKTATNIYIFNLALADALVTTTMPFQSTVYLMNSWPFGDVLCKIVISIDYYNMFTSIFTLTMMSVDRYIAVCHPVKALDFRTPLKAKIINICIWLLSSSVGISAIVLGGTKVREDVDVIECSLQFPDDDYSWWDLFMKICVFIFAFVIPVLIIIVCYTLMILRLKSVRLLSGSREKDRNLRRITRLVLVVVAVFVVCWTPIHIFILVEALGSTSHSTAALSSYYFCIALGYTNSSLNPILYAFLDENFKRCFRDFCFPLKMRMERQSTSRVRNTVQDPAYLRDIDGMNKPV

[8] = biological target: Sodium-dependent noradrenaline transporter (Homo sapiens, UniProt P23975); assay: Binding affinity to NET receptor (unknown origin) assessed as inhibition constant
Sodium-dependent noradrenaline transporter, sequence (P23975 whole entry): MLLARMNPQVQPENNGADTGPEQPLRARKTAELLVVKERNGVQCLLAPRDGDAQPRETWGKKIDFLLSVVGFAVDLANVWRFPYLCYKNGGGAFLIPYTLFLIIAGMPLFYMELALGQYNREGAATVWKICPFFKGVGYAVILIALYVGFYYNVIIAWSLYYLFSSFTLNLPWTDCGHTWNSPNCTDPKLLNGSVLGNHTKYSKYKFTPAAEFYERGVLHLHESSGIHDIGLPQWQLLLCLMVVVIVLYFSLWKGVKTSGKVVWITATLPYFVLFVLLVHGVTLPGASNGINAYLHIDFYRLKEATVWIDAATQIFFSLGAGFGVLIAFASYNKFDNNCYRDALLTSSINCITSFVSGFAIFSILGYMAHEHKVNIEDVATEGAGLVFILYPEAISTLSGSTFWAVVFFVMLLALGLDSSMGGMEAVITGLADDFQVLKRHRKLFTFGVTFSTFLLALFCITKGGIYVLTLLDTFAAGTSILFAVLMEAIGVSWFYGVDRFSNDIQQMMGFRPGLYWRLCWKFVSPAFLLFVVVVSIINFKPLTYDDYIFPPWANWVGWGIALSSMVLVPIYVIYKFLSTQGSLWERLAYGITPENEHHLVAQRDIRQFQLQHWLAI

D(3) dopamine receptor = D(3) dopamine receptor (Homo sapiens, UniProt P35462); assay: Displacement of [3H]-N-Methylspiperone from human D3 receptor at 10 uM by cell-based radioligand binding assay
D(3) dopamine receptor, sequence (P35462 whole entry): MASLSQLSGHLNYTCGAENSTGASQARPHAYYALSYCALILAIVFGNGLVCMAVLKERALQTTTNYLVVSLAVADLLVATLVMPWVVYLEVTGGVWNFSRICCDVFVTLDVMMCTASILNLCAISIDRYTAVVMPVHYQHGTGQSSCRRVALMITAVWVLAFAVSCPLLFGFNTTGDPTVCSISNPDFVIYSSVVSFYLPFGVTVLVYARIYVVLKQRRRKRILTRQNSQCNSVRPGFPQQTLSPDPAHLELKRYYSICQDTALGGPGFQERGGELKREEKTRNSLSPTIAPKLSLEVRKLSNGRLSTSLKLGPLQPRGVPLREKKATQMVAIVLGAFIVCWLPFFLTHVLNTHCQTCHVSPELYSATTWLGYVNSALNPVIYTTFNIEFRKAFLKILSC

D(4) dopamine receptor = biological target: T2, D(4) dopamine receptor (Homo sapiens, UniProt P21917); assay: Displacement of [3H]-N-methylspiperone from human D4 receptor at 10 uM by cell-based radioligand binding assay
T2 sequence (P21917 whole entry): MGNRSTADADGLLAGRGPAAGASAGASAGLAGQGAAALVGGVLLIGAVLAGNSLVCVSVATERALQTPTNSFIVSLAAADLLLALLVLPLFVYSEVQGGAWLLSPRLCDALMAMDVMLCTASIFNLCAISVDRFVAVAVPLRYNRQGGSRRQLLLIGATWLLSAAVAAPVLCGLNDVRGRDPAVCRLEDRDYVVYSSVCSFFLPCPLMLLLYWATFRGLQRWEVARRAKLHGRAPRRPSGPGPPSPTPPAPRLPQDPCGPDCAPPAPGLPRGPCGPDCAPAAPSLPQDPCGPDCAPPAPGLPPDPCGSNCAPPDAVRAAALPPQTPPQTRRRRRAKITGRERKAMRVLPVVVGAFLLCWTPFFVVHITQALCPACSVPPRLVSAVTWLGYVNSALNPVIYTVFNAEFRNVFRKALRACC

[9] = Activation of GIRK channel (unknown origin) assessed as increase in fluorescence analysis; design: species or system Homo sapiens
Histamine H1 receptor = Histamine H1 receptor (Homo sapiens, UniProt P35367); assay: Binding affinity to H1 receptor (unknown origin) assessed as inhibition constant
Histamine H1 receptor, sequence (P35367 whole entry): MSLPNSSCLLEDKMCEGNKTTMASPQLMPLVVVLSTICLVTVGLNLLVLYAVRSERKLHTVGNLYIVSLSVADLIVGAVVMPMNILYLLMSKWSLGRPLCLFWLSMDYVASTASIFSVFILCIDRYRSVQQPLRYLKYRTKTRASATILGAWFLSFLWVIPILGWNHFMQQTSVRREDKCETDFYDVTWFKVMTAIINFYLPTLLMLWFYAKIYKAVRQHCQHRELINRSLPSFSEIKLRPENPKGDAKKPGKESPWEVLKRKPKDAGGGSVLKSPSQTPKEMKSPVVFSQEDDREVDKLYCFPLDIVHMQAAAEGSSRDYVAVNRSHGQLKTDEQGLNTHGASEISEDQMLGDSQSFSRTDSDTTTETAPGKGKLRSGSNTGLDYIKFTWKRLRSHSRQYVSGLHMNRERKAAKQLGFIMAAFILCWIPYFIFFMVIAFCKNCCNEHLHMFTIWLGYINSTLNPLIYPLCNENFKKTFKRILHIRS

Sigma intracellular receptor 2, sequence (Q5BJF2 whole entry): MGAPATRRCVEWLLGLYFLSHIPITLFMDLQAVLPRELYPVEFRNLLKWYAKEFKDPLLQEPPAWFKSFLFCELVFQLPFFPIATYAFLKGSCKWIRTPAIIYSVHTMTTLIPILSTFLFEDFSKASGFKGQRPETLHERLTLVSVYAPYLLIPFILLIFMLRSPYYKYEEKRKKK

Compound `C=C(C)[C@H]1CCC(C)=C[C@@H]1c1c(OC)cc(CCCCC)cc1OCCCCCCCOc1cc(CCCCC)cc(OC)c1[C@H]1C=C(C)CC[C@@H]1C(=C)C` has a pKi [1] of 5.33.

In the case of `C=C(C)[C@@H]1CCC(C)=C[C@H]1c1c(OC)cc(CCCCC)cc1OCCCOc1cc(CCCCC)cc(OC)c1[C@@H]1C=C(C)CC[C@H]1C(=C)C`, the pEC50 (Cannabinoid receptor 1 [2]) was 4.37, the pKi (Translocator protein) was 5.57 and the pKi [1] was 5.47. For the same compound, the Activity (Cannabinoid receptor 1 [3]) was “Active”.

With `Cn1ccc2cc3c(cc21)CCN3C(=O)Nc1cccnc1` the pKi [4] was 8.33.

`C=C(C)[C@H]1CCC(C)=C[C@@H]1c1c(O)cc(CCCCC)cc1OCCCCCCCCOc1cc(CCCCC)cc(O)c1[C@@H]1C=C(C)CC[C@H]1C(=C)C` gave a pKi [4] of 5.35, a pKi [1] of 5.72 and a pKi [5] of 5.72.

In the case of `C=C(C)[C@@H]1CCC(C)=C[C@H]1c1c(O)cc(CCCCC)cc1O`, the Activity (Cannabinoid receptor 1 [6]) was “inactive”.

In the case of `C=C(C)[C@@H]1CCC(C)=C[C@H]1c1c(O)cc(CCCCC)cc1OCCCCCCCOc1cc(CCCCC)cc(O)c1[C@@H]1C=C(C)CC[C@H]1C(=C)C`, the pKi [4] was 5.74 and the pKi (D(2) dopamine receptor) was 6.22.

In the case of `C=C(C)[C@@H]1CCC(C)=C[C@H]1c1c(OC)cc(CCCCC)cc1OCCCCCCCCOc1cc(CCCCC)cc(OC)c1[C@@H]1C=C(C)CC[C@H]1C(=C)C`, the pKi [4] was < 5.00 and the pKi [1] was 5.57.

For `C=C(C)[C@@H]1CCC(C)=C[C@H]1c1c(O)cc(CCCCC)cc1OCCCCCCCCCCCCOc1cc(CCCCC)cc(O)c1[C@@H]1C=C(C)CC[C@H]1C(=C)C`, the pKi [4] was 5.62, the pKi (D(2) dopamine receptor) was < 5.00 and the pKi [7] was 5.77.

With `C=C(C)[C@@H]1CCC(C)=C[C@H]1c1c(OC)cc(CCCCC)cc1OCCCCCOc1cc(CCCCC)cc(OC)c1[C@@H]1C=C(C)CC[C@H]1C(=C)C` the pEC50 (Cannabinoid receptor 1 [2]) was 4.40 and the Activity (Cannabinoid receptor 1 [3]) was “Active”.

With `C=C(C)[C@H]1CCC(C)=C[C@@H]1c1c(O)cc(CCCCC)cc1OCCOc1cc(CCCCC)cc(O)c1[C@@H]1C=C(C)CC[C@H]1C(=C)C` the pKi [4] was 5.77 and the pKi [1] was 6.10.

`C=C(C)[C@@H]1CCC(C)=C[C@H]1c1c(O)cc(CCCCC)c2c1OCC2` showed a pKi [8] of 5.24, a pKi [4] of 5.48 and a pKi (D(2) dopamine receptor) of 6.40. The pKi (D(3) dopamine receptor) was 6.40, the pKi [5] was 5.74 and the pKi (D(4) dopamine receptor) was 6.30.

`C=C(C)[C@H]1CCC(C)=C[C@@H]1c1c(O)cc(CCCCC)cc1OCCCCOc1cc(CCCCC)cc(O)c1[C@@H]1C=C(C)CC[C@H]1C(=C)C` showed a pKi [1] of 5.26.

With `C=C(C)[C@H]1CCC(C)=C[C@@H]1c1c(O)cc(CCCCC)cc1OCCCCCCOc1cc(CCCCC)cc(O)c1[C@@H]1C=C(C)CC[C@H]1C(=C)C` the pKi [1] was 6.15.

Compound `C=C(C)[C@H]1CCC(C)=C[C@@H]1c1c(OC)cc(CCCCC)cc1OCCCCCCCCCCCCOc1cc(CCCCC)cc(OC)c1[C@H]1C=C(C)CC[C@@H]1C(=C)C` has a pKi (Translocator protein) of 6.05 and a pKi [4] of 5.18.

`Cc1c(C(=O)c2cccc3ccccc23)c2cccc3c2n1[C@H](CN1CCOCC1)CO3` [WIN-552122] showed a pEC50 [9] of 4.88.

`C=C(C)[C@@H]1CCC(C)=C[C@H]1c1c(OC)cc(CCCCC)cc1OCCCCOc1cc(CCCCC)cc(OC)c1[C@@H]1C=C(C)CC[C@H]1C(=C)C` gave a pKi (Histamine H1 receptor) of 6.22.

`C=C(C)[C@H]1CCC(C)=C[C@@H]1c1c(O)cc(CCCCC)cc1OCCCCCOc1cc(CCCCC)cc(O)c1[C@@H]1C=C(C)CC[C@H]1C(=C)C` showed a pKi [4] of 5.68 and a pKi [1] of 5.16.

In the case of `C=C(C)[C@@H]1CCC(C)=C[C@H]1c1c(OC)cc(CCCCC)cc1OCCCCCCOc1cc(CCCCC)cc(OC)c1[C@@H]1C=C(C)CC[C@H]1C(=C)C`, the pKi [4] was 5.06 and the pKi [1] was 5.26.

In the case of `C=C(C)[C@@H]1CCC(C)=C[C@H]1c1c(OC)cc(CCCCC)cc1OCCOCCOCCOCCOc1cc(CCCCC)cc(OC)c1[C@@H]1C=C(C)CC[C@H]1C(=C)C`, the pKi [1] was 5.09.
